Measured values taken from US20250134799A1, “COMPOSITION CONTAINING NERO DI TROIA POMACE EXTRACT” (PLANBIO COSMETICS SRL, priority 2022, published 2025).

System: HaCaT cells
Test: Cellular viability of HaCaT cells by MTS colorimetric assay
Format: cell-based, human
Conditions: 24 hours
Protocol: The aim of this study was to evaluate in vitro the effect of GExtract NdT (obtained in Example 1) on the viability of the human keratinocyte cell line HaCaT. The evaluation was performed on cells exposed to GExtract NdT at a dilution of 2% in complete medium for 24 hours. The cellular viability was measured by MTS colorimetric essay through the absorbance measurement obtained from the conversion of a bioreduced tertazolium compound from viable cells into a coloured formazan soluble in the culture medium. The HaCaT cells were exposed for 24 hours to 2% of GExtract NdT of and Triton-X 100 and subsequently the viability was evaluated by MTS assay.

**Q.** With TRITON-X 100 as the substance, how does the “Concentration from which the surfactant lysed all the cells” value read?
**A.** The value was no less than 0.01%.

**Q.** And the “% CTR (cell viability, percentage normalized on the control group)” value (0.005% (v/v))?
**A.** The value was 52.098%.

**Q.** And the “% CTR (cell viability, percentage normalized on the control group)” value (0.01% (v/v))?
**A.** The value was 0%.

**Q.** And the “% CTR (cell viability, percentage normalized on the control group)” value (0.05% (v/v))?
**A.** The value was 0%.

**Q.** What about the “% CTR (cell viability, percentage normalized on the control group)” value (0.5% (v/v)) of the same substance?
**A.** The value was 0%.
